Test results published in patent US10499642B2, “Isoxazoline-substituted benzamides and analogues as insecticides” (SYNGENTA PARTICIPATIONS AG, priority 2015, dated 2019).
Where two headings read alike, the source gives them in different places.

Key:
Type in all cases: in vivo
Spodoptera littoralis = Spodoptera littoralis (Egyptian cotton leaf worm) cotton leaf disc test; conditions: foliar, 72 h, read-out: control (at least one of mortality, anti-feedant effect, and growth inhibition)
Outline: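 Five first-instar larvae per disc were placed on dried, sprayed cotton leaf discs held on agar. Test solutions were aqueous, made from 10′000 ppm DMSO stocks. At day 3, control was counted when mortality, feeding deterrence or growth inhibition exceeded the untreated discs.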

Plutella xylostella = Plutella xylostella (diamond back moth) artificial diet test; conditions: 120 h, read-out: effect in at least one of the two categories (mortality or growth inhibition)
Outline: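 At a 200 ppm rate, test solutions were applied to artificial diet and allowed to dry before second-instar larvae were added. Five days later, larval mortality and growth inhibition were rated against untreated samples.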

Diabrotica Balteata = test: Diabrotica balteata (corn root worm) maize sprout test; conditions: 96 h, read-out: effect in at least one of the two categories (mortality or growth inhibition)
Outline: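 Scoring covered both mortality and growth inhibition relative to untreated controls, 4 days post-infestation. Test solutions at 200 ppm, diluted in water from 10′000 ppm DMSO stocks, were sprayed onto agar-held maize sprouts, which after drying received 6 to 10 L2 larvae each well.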

Thrips tabaci = Thrips tabaci (onion thrips) sunflower leaf disc test; conditions: foliar, 144 h
Procedure: Thrips tabaci (Onion Thrips):
(§1) Sunflower leaf discs were placed on agar in 24-well microtiter plates and sprayed with aqueous test solutions prepared from 10′000 ppm DMSO stock solutions. After drying the leaf discs were infested with a thrips population of mixed ages. The samples were assessed for mortality 6 days after infestation.

Tetranychus urticae = Tetranychus urticae (two-spotted spider mite) bean leaf disc test; conditions: foliar, 192 h
Procedure: Tetranychus urticae (Two-Spotted Spider Mite):
as §1, with “Bean” for “Sunflower”, “discs” for “discs were placed”, “were” for “and”, “mite” for “thrips”, “on mixed population (mobile stages) 8” for “6”

Myzus persicae = Myzus persicae (green peach aphid) sunflower leaf disc test; conditions: foliar, 144 h
Procedure: Myzus persicae (Green Peach Aphid):
Sunflower leaf discs were placed on agar in a 24-well microtiter plate and sprayed with test solutions at an application rate of 200 ppm. After drying, the leaf discs were infested with an aphid population of mixed ages. After an incubation period of 6 days after treatment, samples were checked for mortality. The following compounds gave at least 80% mortality of Myzus persicae: […]

[1] = application rate 200 ppm, cotton leaf discs, L1 larvae, 3 days after infestation
[2] = application rate 200 ppm, artificial diet, L2 larvae, 5 days after infestation
[3] = application rate 200 ppm, maize sprouts, L2 larvae, 4 days after infestation
[4] = application rate 200 ppm, sunflower leaf discs, population of mixed ages, 6 days after infestation, read-out: mortality
[5] = application rate 200 ppm, bean leaf discs, mixed population (mobile stages), 8 days after infestation, read-out: mortality
[6] = application rate 200 ppm, sunflower leaf discs, population of mixed ages, 6 days after treatment, read-out: mortality

COC1=NOC(NC(=O)c2ccc(C3=NO[C@@](c4cccc(C(F)(F)F)c4)(C(F)(F)F)C3)cc2C)C1 (stereo partly drawn) [Compound A057]
≥ 80%: percent control (mortality, anti-feedant effect or growth inhibition) at 200 ppm (Spodoptera littoralis; [1]) | percent effect (mortality or growth inhibition) at 200 ppm (Plutella xylostella; [2]) | percent effect (mortality or growth inhibition) at 200 ppm (Diabrotica Balteata; [3]) | mortality at 200 ppm (Thrips tabaci; [4]) | mortality at 200 ppm (Tetranychus urticae; [5]) | mortality at 200 ppm (Myzus persicae; [6])

Cc1cc(C2=NO[C@@](c3cccc(C(F)(F)F)c3)(C(F)(F)F)C2)ccc1C(=O)NC1CC(Br)=NO1 (stereo partly drawn) [Compound A058]
≥ 80%: percent control (mortality, anti-feedant effect or growth inhibition) at 200 ppm (Spodoptera littoralis; [1]) | percent effect (mortality or growth inhibition) at 200 ppm (Plutella xylostella; [2]) | percent effect (mortality or growth inhibition) at 200 ppm (Diabrotica Balteata; [3]) | mortality at 200 ppm (Thrips tabaci; [4]) | mortality at 200 ppm (Tetranychus urticae; [5]) | mortality at 200 ppm (Myzus persicae; [6])

CCOC1=NOC(NC(=O)c2ccc(C3=NO[C@@](c4cc(Cl)c(Cl)c(Cl)c4)(C(F)(F)F)C3)cc2C)C1 (stereo partly drawn) [Compound A059]
≥ 80%: percent control (mortality, anti-feedant effect or growth inhibition) at 200 ppm (Spodoptera littoralis) | percent effect (mortality or growth inhibition) at 200 ppm (Plutella xylostella) | percent effect (mortality or growth inhibition) at 200 ppm (Diabrotica Balteata) | mortality at 200 ppm (Thrips tabaci) | mortality at 200 ppm (Tetranychus urticae) | mortality at 200 ppm (Myzus persicae)

CCOC1=NOC(NC(=O)c2ccc(C3=NO[C@@](c4cc(Cl)c(Cl)c(Cl)c4)(C(F)(F)F)C3)cc2Cl)C1 (stereo partly drawn) [Compound A060, 2-chloro-N-(3-ethoxy-4,5-dihydroisoxazol-5-yl)-4-[(5S)-5-(3,4,5-trichlorophenyl)-5-(trifluoromethyl)-4H-isoxazol-3-yl]benzamide]
≥ 80%: percent control (mortality, anti-feedant effect or growth inhibition) at 200 ppm (Spodoptera littoralis) | percent effect (mortality or growth inhibition) at 200 ppm (Plutella xylostella) | percent effect (mortality or growth inhibition) at 200 ppm (Diabrotica Balteata) | mortality at 200 ppm (Thrips tabaci) | mortality at 200 ppm (Tetranychus urticae) | mortality at 200 ppm (Myzus persicae)

CCOC1=NOC(NC(=O)c2ccc(C3=NO[C@@](c4cc(Cl)cc(Cl)c4)(C(F)(F)F)C3)cc2C)C1 (stereo partly drawn) [Compound A061, 4-[(5S)-5-(3,5-dichlorophenyl)-5-(trifluoromethyl)-4H-isoxazol-3-yl]-N-(3-ethoxy-4,5-dihydroisoxazol-5-yl)-2-methyl-benzamide]
≥ 80%: percent control (mortality, anti-feedant effect or growth inhibition) at 200 ppm (Spodoptera littoralis) | percent effect (mortality or growth inhibition) at 200 ppm (Plutella xylostella) | percent effect (mortality or growth inhibition) at 200 ppm (Diabrotica Balteata) | mortality at 200 ppm (Thrips tabaci) | mortality at 200 ppm (Tetranychus urticae) | mortality at 200 ppm (Myzus persicae)

COC1=NOC(NC(=O)c2ccc(C3=NO[C@@](c4cc(Cl)cc(Cl)c4)(C(F)(F)F)C3)cc2Cl)C1 (stereo partly drawn) [Compound A062]
≥ 80%: percent control (mortality, anti-feedant effect or growth inhibition) at 200 ppm (Spodoptera littoralis) | percent effect (mortality or growth inhibition) at 200 ppm (Plutella xylostella) | percent effect (mortality or growth inhibition) at 200 ppm (Diabrotica Balteata) | mortality at 200 ppm (Thrips tabaci) | mortality at 200 ppm (Tetranychus urticae) | mortality at 200 ppm (Myzus persicae)

CCOC1=NOC(NC(=O)c2ccc(C3=NO[C@@](c4cc(Cl)cc(Cl)c4)(C(F)(F)F)C3)cc2Cl)C1 (stereo partly drawn) [Compound A063]
≥ 80%: percent control (mortality, anti-feedant effect or growth inhibition) at 200 ppm (Spodoptera littoralis) | percent effect (mortality or growth inhibition) at 200 ppm (Plutella xylostella) | percent effect (mortality or growth inhibition) at 200 ppm (Diabrotica Balteata) | mortality at 200 ppm (Thrips tabaci) | mortality at 200 ppm (Tetranychus urticae) | mortality at 200 ppm (Myzus persicae)

CCOC1=NOC(NC(=O)c2ccc(C3=NO[C@@](c4cc(Cl)c(F)c(Cl)c4)(C(F)(F)F)C3)cc2Cl)C1 (stereo partly drawn) [Compound A064]
≥ 80%: percent control (mortality, anti-feedant effect or growth inhibition) at 200 ppm (Spodoptera littoralis) | percent effect (mortality or growth inhibition) at 200 ppm (Plutella xylostella) | percent effect (mortality or growth inhibition) at 200 ppm (Diabrotica Balteata) | mortality at 200 ppm (Thrips tabaci) | mortality at 200 ppm (Tetranychus urticae) | mortality at 200 ppm (Myzus persicae)

COC1=NOC(NC(=O)c2ccc(C3=NO[C@@](c4cc(Cl)cc(C(F)(F)F)c4)(C(F)(F)F)C3)cc2Cl)C1 (stereo partly drawn) [Compound A065]
≥ 80%: percent control (mortality, anti-feedant effect or growth inhibition) at 200 ppm (Spodoptera littoralis) | percent effect (mortality or growth inhibition) at 200 ppm (Plutella xylostella) | percent effect (mortality or growth inhibition) at 200 ppm (Diabrotica Balteata) | mortality at 200 ppm (Thrips tabaci) | mortality at 200 ppm (Tetranychus urticae) | mortality at 200 ppm (Myzus persicae)

CCOC1=NOC(NC(=O)c2ccc(C3=NO[C@@](c4cc(Cl)cc(C(F)(F)F)c4)(C(F)(F)F)C3)cc2Cl)C1 (stereo partly drawn) [Compound A066]
≥ 80%: percent control (mortality, anti-feedant effect or growth inhibition) at 200 ppm (Spodoptera littoralis) | percent effect (mortality or growth inhibition) at 200 ppm (Plutella xylostella) | percent effect (mortality or growth inhibition) at 200 ppm (Diabrotica Balteata) | mortality at 200 ppm (Thrips tabaci) | mortality at 200 ppm (Tetranychus urticae) | mortality at 200 ppm (Myzus persicae)

CC(=O)OCC1=NOC(NC(=O)c2ccc(C3=NO[C@@](c4cc(Cl)c(F)c(Cl)c4)(C(F)(F)F)C3)cc2C)C1 (stereo partly drawn) [Compound A069]
≥ 80%: percent control (mortality, anti-feedant effect or growth inhibition) at 200 ppm (Spodoptera littoralis) | percent effect (mortality or growth inhibition) at 200 ppm (Plutella xylostella) | percent effect (mortality or growth inhibition) at 200 ppm (Diabrotica Balteata) | mortality at 200 ppm (Thrips tabaci) | mortality at 200 ppm (Tetranychus urticae) | mortality at 200 ppm (Myzus persicae)

CCCOC1=NOC(NC(=O)c2ccc(C3=NO[C@@](c4cc(Cl)c(F)c(Cl)c4)(C(F)(F)F)C3)cc2C)C1 (stereo partly drawn) [Compound A070]
≥ 80%: percent control (mortality, anti-feedant effect or growth inhibition) at 200 ppm (Spodoptera littoralis) | percent effect (mortality or growth inhibition) at 200 ppm (Plutella xylostella) | percent effect (mortality or growth inhibition) at 200 ppm (Diabrotica Balteata) | mortality at 200 ppm (Thrips tabaci) | mortality at 200 ppm (Tetranychus urticae) | mortality at 200 ppm (Myzus persicae)

Cc1cc(C2=NO[C@@](c3cc(Cl)c(F)c(Cl)c3)(C(F)(F)F)C2)ccc1C(=O)NC1CC(OCC(F)F)=NO1 (stereo partly drawn) [Compound A071]
≥ 80%: percent control (mortality, anti-feedant effect or growth inhibition) at 200 ppm (Spodoptera littoralis) | percent effect (mortality or growth inhibition) at 200 ppm (Plutella xylostella) | percent effect (mortality or growth inhibition) at 200 ppm (Diabrotica Balteata) | mortality at 200 ppm (Thrips tabaci) | mortality at 200 ppm (Tetranychus urticae) | mortality at 200 ppm (Myzus persicae)

C=CCOC1=NOC(NC(=O)c2ccc(C3=NO[C@@](c4cc(Cl)c(F)c(Cl)c4)(C(F)(F)F)C3)cc2C)C1 (stereo partly drawn) [Compound A072]
≥ 80%: percent control (mortality, anti-feedant effect or growth inhibition) at 200 ppm (Spodoptera littoralis) | percent effect (mortality or growth inhibition) at 200 ppm (Plutella xylostella) | percent effect (mortality or growth inhibition) at 200 ppm (Diabrotica Balteata) | mortality at 200 ppm (Thrips tabaci) | mortality at 200 ppm (Tetranychus urticae) | mortality at 200 ppm (Myzus persicae)

Cc1cc(C2=NO[C@@](c3cc(Cl)c(F)c(Cl)c3)(C(F)(F)F)C2)ccc1C(=O)NC1CC(OCC(C)C)=NO1 (stereo partly drawn) [Compound A073]
≥ 80%: percent control (mortality, anti-feedant effect or growth inhibition) at 200 ppm (Spodoptera littoralis) | percent effect (mortality or growth inhibition) at 200 ppm (Plutella xylostella) | percent effect (mortality or growth inhibition) at 200 ppm (Diabrotica Balteata) | mortality at 200 ppm (Thrips tabaci) | mortality at 200 ppm (Tetranychus urticae) | mortality at 200 ppm (Myzus persicae)

C#CCOC1=NOC(NC(=O)c2ccc(C3=NO[C@@](c4cc(Cl)c(F)c(Cl)c4)(C(F)(F)F)C3)cc2C)C1 (stereo partly drawn) [Compound A074]
≥ 80%: percent control (mortality, anti-feedant effect or growth inhibition) at 200 ppm (Spodoptera littoralis) | percent effect (mortality or growth inhibition) at 200 ppm (Plutella xylostella) | percent effect (mortality or growth inhibition) at 200 ppm (Diabrotica Balteata) | mortality at 200 ppm (Thrips tabaci) | mortality at 200 ppm (Tetranychus urticae) | mortality at 200 ppm (Myzus persicae)

Cc1cc(C2=NO[C@@](c3cc(Cl)c(F)c(Cl)c3)(C(F)(F)F)C2)ccc1C(=O)NC1CC(OCC(F)(F)C(F)C(F)(F)F)=NO1 (stereo partly drawn) [Compound A075]
≥ 80%: percent control (mortality, anti-feedant effect or growth inhibition) at 200 ppm (Spodoptera littoralis) | percent effect (mortality or growth inhibition) at 200 ppm (Plutella xylostella) | percent effect (mortality or growth inhibition) at 200 ppm (Diabrotica Balteata) | mortality at 200 ppm (Thrips tabaci) | mortality at 200 ppm (Tetranychus urticae) | mortality at 200 ppm (Myzus persicae)

COCCOC1=NOC(NC(=O)c2ccc(C3=NO[C@@](c4cc(Cl)c(F)c(Cl)c4)(C(F)(F)F)C3)cc2C)C1 (stereo partly drawn) [Compound A076]
≥ 80%: percent control (mortality, anti-feedant effect or growth inhibition) at 200 ppm (Spodoptera littoralis) | percent effect (mortality or growth inhibition) at 200 ppm (Plutella xylostella) | percent effect (mortality or growth inhibition) at 200 ppm (Diabrotica Balteata) | mortality at 200 ppm (Thrips tabaci) | mortality at 200 ppm (Tetranychus urticae) | mortality at 200 ppm (Myzus persicae)

Cc1cc(C2=NO[C@@](c3cc(Cl)c(F)c(Cl)c3)(C(F)(F)F)C2)ccc1C(=O)NC1CC(OC(C)C)=NO1 (stereo partly drawn) [Compound A077]
≥ 80%: percent control (mortality, anti-feedant effect or growth inhibition) at 200 ppm (Spodoptera littoralis) | percent effect (mortality or growth inhibition) at 200 ppm (Plutella xylostella) | percent effect (mortality or growth inhibition) at 200 ppm (Diabrotica Balteata) | mortality at 200 ppm (Thrips tabaci) | mortality at 200 ppm (Tetranychus urticae) | mortality at 200 ppm (Myzus persicae)

Cc1cc(C2=NO[C@@](c3cc(Cl)c(F)c(Cl)c3)(C(F)(F)F)C2)ccc1C(=O)NC1CC(OC2CC2)=NO1 (stereo partly drawn) [Compound A078]
≥ 80%: percent control (mortality, anti-feedant effect or growth inhibition) at 200 ppm (Spodoptera littoralis) | percent effect (mortality or growth inhibition) at 200 ppm (Plutella xylostella) | percent effect (mortality or growth inhibition) at 200 ppm (Diabrotica Balteata) | mortality at 200 ppm (Thrips tabaci) | mortality at 200 ppm (Tetranychus urticae) | mortality at 200 ppm (Myzus persicae)
